Measured values reported in the NIST ThermoML archive (doi:10.1016/j.jct.2013.01.012).
Numbers after ± are expanded uncertainties.

Columns and labels:
[1] = refractive index (Na D-line) (dimensionless); mn = molality of the nth substance listed, in mol/kg; conditions: 101 kPa, Liquid, Standard Abbe refractometry
[2] = mn = molality of the nth substance listed, in mol/kg; conditions: 101 kPa, Liquid; for speed of sound: Sing-around technique in a fixed-path interferometer; for mass density: Vibrating tube method

O=P([O-])([O-])O.[Na+].[Na+] [disodium hydrogen phosphate] + O
Conditions | mass density, 298.15 K [kg/m3] | mass density, 303.15 K [kg/m3] | mass density, 308.15 K [kg/m3] | refractive index, 298.15 K | refractive index, 303.15 K | refractive index, 308.15 K | speed of sound, 298.15 K [m/s] | speed of sound, 303.15 K [m/s] | speed of sound, 308.15 K [m/s]
[1], m1 = 0.1 | – | – | – | 1.3354 ± 0.0004 | 1.3347 ± 0.0004 | 1.3344 ± 0.0004 | – | – | –
[1], m1 = 0.3 | – | – | – | 1.3408 ± 0.0004 | 1.3404 ± 0.0004 | 1.3398 ± 0.0004 | – | – | –
[1], m1 = 0.5 | – | – | – | 1.3457 ± 0.0004 | 1.3456 ± 0.0004 | 1.3448 ± 0.0004 | – | – | –
[1], m1 = 0.7 | – | – | – | 1.3512 ± 0.0004 | 1.3507 ± 0.0004 | 1.3499 ± 0.0004 | – | – | –
[1], m1 = 0.9 | – | – | – | 1.3562 ± 0.0004 | 1.3557 ± 0.0004 | 1.3552 ± 0.0004 | – | – | –
[2], m1 = 0.1 | 1010.86 ± 0.15 | 1009.51 ± 0.15 | 1008.19 ± 0.15 | – | – | – | 1514.6 ± 0.98 | 1526.5 ± 0.99 | 1537 ± 0.99
[2], m1 = 0.3 | 1038.69 ± 0.16 | 1037 ± 0.17 | 1035.61 ± 0.13 | – | – | – | 1549.5 ± 1 | 1560.1 ± 1 | 1569.8 ± 1
[2], m1 = 0.5 | 1066.76 ± 0.17 | 1069.09 ± 0.18 | 1051.41 ± 10 | – | – | – | 1583.5 ± 1 | 1598.6 ± 1 | 1588.7 ± 20
[2], m1 = 0.7 | 1096.95 ± 0.19 | 1095.37 ± 0.18 | 1099.82 ± 0.3 | – | – | – | 1621.3 ± 1.1 | 1630 ± 1.1 | 1646.2 ± 1.1
[2], m1 = 0.9 | 1129.62 ± 0.21 | 1128.52 ± 0.27 | 1162.21 ± 40 | – | – | – | 1663.2 ± 1.1 | 1672.3 ± 1.1 | 1685.8 ± 1.1

O=P([O-])([O-])[O-].[K+].[K+].[K+] [tripotassium phosphate] + O
Conditions | mass density, 298.15 K [kg/m3] | mass density, 303.15 K [kg/m3] | mass density, 308.15 K [kg/m3] | refractive index, 298.15 K | refractive index, 303.15 K | refractive index, 308.15 K | speed of sound, 298.15 K [m/s] | speed of sound, 303.15 K [m/s] | speed of sound, 308.15 K [m/s]
[1], m1 = 0.1 | – | – | – | 1.3365 ± 0.0004 | 1.3357 ± 0.0004 | 1.3351 ± 0.0004 | – | – | –
[1], m1 = 0.3 | – | – | – | 1.344 ± 0.0004 | 1.3435 ± 0.0004 | 1.3426 ± 0.0004 | – | – | –
[1], m1 = 0.5 | – | – | – | 1.3517 ± 0.0004 | 1.351 ± 0.0004 | 1.3502 ± 0.0004 | – | – | –
[1], m1 = 0.7 | – | – | – | 1.3595 ± 0.0004 | 1.3588 ± 0.0004 | 1.3581 ± 0.0004 | – | – | –
[1], m1 = 0.9 | – | – | – | 1.3671 ± 0.0004 | 1.3667 ± 0.0004 | 1.3659 ± 0.0004 | – | – | –
[2], m1 = 0.1 | 1017.14 ± 0.21 | 1015.62 ± 0.22 | 1013.92 ± 0.21 | – | – | – | 1518.2 ± 0.99 | 1529.8 ± 0.99 | 1539.7 ± 1
[2], m1 = 0.3 | 1057.82 ± 0.23 | 1056.83 ± 0.23 | 1054.87 ± 0.23 | – | – | – | 1559.7 ± 1 | 1570.2 ± 1 | 1578.9 ± 1
[2], m1 = 0.5 | 1101.23 ± 0.26 | 1100.46 ± 0.26 | 1098.72 ± 0.26 | – | – | – | 1603 ± 1.1 | 1616.1 ± 1.1 | 1622.8 ± 1.1
[2], m1 = 0.7 | 1145.91 ± 0.29 | 1145.57 ± 0.29 | 1144.26 ± 0.29 | – | – | – | 1658.8 ± 1.1 | 1666.7 ± 1.1 | 1671.9 ± 1.1
[2], m1 = 0.9 | 1191.53 ± 0.32 | 1191.62 ± 0.32 | 1190.09 ± 0.32 | – | – | – | 1716.6 ± 1.2 | 1723.7 ± 1.2 | 1725.1 ± 1.2

O=P(O)(O)O [phosphoric acid] + O
Conditions | mass density, 298.15 K [kg/m3] | mass density, 303.15 K [kg/m3] | mass density, 308.15 K [kg/m3] | refractive index, 298.15 K | refractive index, 303.15 K | refractive index, 308.15 K | speed of sound, 298.15 K [m/s] | speed of sound, 303.15 K [m/s] | speed of sound, 308.15 K [m/s]
[1], m1 = 0.1 | – | – | – | 1.3334 ± 0.0004 | 1.3329 ± 0.0004 | 1.3323 ± 0.0004 | – | – | –
[1], m1 = 0.3 | – | – | – | 1.335 ± 0.0004 | 1.3345 ± 0.0004 | 1.3339 ± 0.0004 | – | – | –
[1], m1 = 0.5 | – | – | – | 1.3366 ± 0.0004 | 1.336 ± 0.0004 | 1.3356 ± 0.0004 | – | – | –
[1], m1 = 0.7 | – | – | – | 1.3381 ± 0.0004 | 1.3376 ± 0.0004 | 1.3371 ± 0.0004 | – | – | –
[1], m1 = 0.9 | – | – | – | 1.3397 ± 0.0004 | 1.3393 ± 0.0004 | 1.3388 ± 0.0004 | – | – | –
[2], m1 = 0.1 | 1002.05 ± 0.069 | 1000.62 ± 0.069 | 998.962 ± 0.069 | – | – | – | 1497.1 ± 0.97 | 1509.2 ± 0.98 | 1519.7 ± 0.98
[2], m1 = 0.3 | 1011.37 ± 0.073 | 1009.93 ± 0.073 | 1008.27 ± 0.072 | – | – | – | 1498.3 ± 0.97 | 1510.2 ± 0.98 | 1520.4 ± 0.98
[2], m1 = 0.5 | 1021.09 ± 0.077 | 1019.94 ± 0.077 | 1018.07 ± 0.077 | – | – | – | 1500 ± 0.97 | 1511.6 ± 0.98 | 1521.6 ± 0.98
[2], m1 = 0.7 | 1030.49 ± 0.081 | 1029.49 ± 0.08 | 1028.12 ± 0.081 | – | – | – | 1502 ± 0.97 | 1513.2 ± 0.98 | 1523 ± 0.98
[2], m1 = 0.9 | 1040.62 ± 0.086 | 1039.05 ± 0.084 | 1037.8 ± 0.084 | – | – | – | 1504.2 ± 0.97 | 1515.1 ± 0.98 | 1524.6 ± 0.98

O=P([O-])(O)O.[K+] [monopotassium phosphate] + O
Conditions | mass density, [2] [kg/m3] | refractive index, [1] | speed of sound, [2] [m/s]
298.15 K, m1 = 0.1 | 1007.01 ± 0.11 | 1.3343 ± 0.0004 | 1506.5 ± 0.99
298.15 K, m1 = 0.3 | 1026.44 ± 0.13 | 1.3374 ± 0.0004 | 1524.5 ± 1
298.15 K, m1 = 0.5 | 1046.68 ± 0.15 | 1.3401 ± 0.0004 | 1542.1 ± 1.1
298.15 K, m1 = 0.7 | 1066.58 ± 0.19 | 1.3435 ± 0.0004 | –
298.15 K, m1 = 0.9 | 1088.28 ± 0.23 | 1.3466 ± 0.0004 | 1577.6 ± 1.2
303.15 K, m1 = 0.1 | 1005.58 ± 0.11 | 1.3336 ± 0.0004 | 1518.4 ± 0.99
303.15 K, m1 = 0.3 | 1025.15 ± 0.13 | 1.3368 ± 0.0004 | 1536 ± 1
303.15 K, m1 = 0.5 | 1045.29 ± 0.15 | 1.3397 ± 0.0004 | 1553.2 ± 1.1
303.15 K, m1 = 0.7 | 1065.65 ± 0.19 | 1.3427 ± 0.0004 | 1570.1 ± 1.1
303.15 K, m1 = 0.9 | 1087.42 ± 0.23 | 1.3463 ± 0.0004 | 1587.9 ± 1.2
308.15 K, m1 = 0.1 | 1004.16 ± 0.11 | 1.333 ± 0.0004 | 1528.8 ± 1
308.15 K, m1 = 0.3 | 1023.58 ± 0.13 | 1.3361 ± 0.0004 | 1545.8 ± 1
308.15 K, m1 = 0.5 | 1044.55 ± 0.16 | 1.3392 ± 0.0004 | 1563.1 ± 1.1
308.15 K, m1 = 0.7 | 1065.08 ± 0.19 | 1.3423 ± 0.0004 | 1580 ± 1.1
308.15 K, m1 = 0.9 | 1086.5 ± 0.22 | 1.3455 ± 0.0004 | 1596.6 ± 1.2
